Source: ChEMBL document CHEMBL5465560, “Selectivity Literature for EUbOPEN Chemogenomic Library” (2024)

Legend:
Details in all cases: at 10 µM
Insulin receptor = Insulin receptor (Homo sapiens, UniProt P06213); assay: Selectivity interaction (Kinase panel (Z-LYTE Assay)) EUB0001632a INSR
[1] = biological target: T1, Serine/threonine-protein kinase TAO3 (Homo sapiens) (UniProt Q9H2K8); assay: Selectivity interaction (LanthaScreen Eu Kinase Binding Assay) EUB0001632a TAOK3
T1 sequence (whole entry): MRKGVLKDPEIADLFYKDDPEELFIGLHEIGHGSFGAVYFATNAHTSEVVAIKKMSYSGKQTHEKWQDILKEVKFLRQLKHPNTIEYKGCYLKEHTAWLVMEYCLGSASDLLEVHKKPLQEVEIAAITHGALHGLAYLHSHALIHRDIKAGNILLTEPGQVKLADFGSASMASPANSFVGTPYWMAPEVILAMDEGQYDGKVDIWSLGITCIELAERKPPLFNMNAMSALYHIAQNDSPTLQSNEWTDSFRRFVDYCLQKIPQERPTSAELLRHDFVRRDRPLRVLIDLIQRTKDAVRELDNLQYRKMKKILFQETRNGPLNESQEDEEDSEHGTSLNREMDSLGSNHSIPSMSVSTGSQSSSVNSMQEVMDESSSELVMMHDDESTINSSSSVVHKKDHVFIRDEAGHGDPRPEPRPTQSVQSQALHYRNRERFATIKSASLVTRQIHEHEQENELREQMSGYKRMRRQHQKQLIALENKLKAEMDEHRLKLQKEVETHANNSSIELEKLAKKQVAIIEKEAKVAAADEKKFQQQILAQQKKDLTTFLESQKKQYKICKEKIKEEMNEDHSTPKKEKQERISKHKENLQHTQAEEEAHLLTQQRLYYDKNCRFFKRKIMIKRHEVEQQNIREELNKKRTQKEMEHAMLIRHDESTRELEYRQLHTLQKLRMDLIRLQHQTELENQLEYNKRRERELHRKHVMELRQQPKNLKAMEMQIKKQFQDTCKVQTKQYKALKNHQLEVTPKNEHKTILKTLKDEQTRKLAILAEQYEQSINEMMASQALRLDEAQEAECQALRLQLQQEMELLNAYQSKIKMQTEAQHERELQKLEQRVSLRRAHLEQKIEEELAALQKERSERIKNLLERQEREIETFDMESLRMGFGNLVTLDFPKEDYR

[2] = biological target: T2, Tyrosine-protein kinase Mer (Homo sapiens) (UniProt Q12866); assay: Selectivity interaction (Kinase panel (Z-LYTE Assay)) EUB0001632a MERTK
T2 sequence (whole entry): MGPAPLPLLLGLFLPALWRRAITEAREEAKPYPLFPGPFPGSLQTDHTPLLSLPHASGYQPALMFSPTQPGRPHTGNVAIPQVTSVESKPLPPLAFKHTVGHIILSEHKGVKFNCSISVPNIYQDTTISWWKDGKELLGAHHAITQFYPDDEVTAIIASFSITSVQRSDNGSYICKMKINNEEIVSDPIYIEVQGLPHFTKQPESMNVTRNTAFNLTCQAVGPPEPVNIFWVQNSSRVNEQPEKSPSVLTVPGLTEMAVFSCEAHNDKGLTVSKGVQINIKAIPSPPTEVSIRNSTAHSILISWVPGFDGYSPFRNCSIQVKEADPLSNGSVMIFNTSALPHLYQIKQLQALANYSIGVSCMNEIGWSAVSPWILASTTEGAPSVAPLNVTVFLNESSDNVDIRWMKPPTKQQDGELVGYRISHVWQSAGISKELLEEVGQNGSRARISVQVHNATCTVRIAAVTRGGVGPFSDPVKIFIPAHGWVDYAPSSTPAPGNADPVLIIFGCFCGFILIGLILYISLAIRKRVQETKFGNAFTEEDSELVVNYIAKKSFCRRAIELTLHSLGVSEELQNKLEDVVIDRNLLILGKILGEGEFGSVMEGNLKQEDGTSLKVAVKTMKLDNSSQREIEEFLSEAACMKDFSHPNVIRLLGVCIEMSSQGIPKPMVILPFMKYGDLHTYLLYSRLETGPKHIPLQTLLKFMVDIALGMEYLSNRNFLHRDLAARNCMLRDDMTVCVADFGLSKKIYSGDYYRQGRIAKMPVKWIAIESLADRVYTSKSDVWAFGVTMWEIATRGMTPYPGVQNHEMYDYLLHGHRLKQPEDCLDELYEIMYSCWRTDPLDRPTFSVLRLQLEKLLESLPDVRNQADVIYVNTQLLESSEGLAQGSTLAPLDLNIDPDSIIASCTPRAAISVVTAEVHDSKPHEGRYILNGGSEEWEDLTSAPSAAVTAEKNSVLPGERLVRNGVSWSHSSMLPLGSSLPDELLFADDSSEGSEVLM

Sequence of Insulin receptor (P06213 28-758 limits assumed): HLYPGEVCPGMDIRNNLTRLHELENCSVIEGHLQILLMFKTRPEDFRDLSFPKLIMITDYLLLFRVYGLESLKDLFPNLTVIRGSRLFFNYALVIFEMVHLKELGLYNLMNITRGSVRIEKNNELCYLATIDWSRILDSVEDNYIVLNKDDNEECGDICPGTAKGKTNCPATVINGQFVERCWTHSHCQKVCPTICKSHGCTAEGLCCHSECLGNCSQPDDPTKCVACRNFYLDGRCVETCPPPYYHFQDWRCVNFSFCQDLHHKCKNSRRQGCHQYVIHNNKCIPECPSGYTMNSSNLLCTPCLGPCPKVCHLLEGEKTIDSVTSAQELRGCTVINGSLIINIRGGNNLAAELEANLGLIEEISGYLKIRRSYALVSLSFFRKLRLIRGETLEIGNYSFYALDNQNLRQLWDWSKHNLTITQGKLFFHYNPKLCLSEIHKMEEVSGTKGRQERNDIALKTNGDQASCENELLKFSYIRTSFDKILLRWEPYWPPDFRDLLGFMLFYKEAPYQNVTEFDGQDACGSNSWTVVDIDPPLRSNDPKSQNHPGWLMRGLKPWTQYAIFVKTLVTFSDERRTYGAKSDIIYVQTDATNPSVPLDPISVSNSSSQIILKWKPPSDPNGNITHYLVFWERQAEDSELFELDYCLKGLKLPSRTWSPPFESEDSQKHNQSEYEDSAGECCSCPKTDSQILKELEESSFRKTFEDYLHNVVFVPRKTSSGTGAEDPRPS
Sequence of Insulin receptor (P06213 763-1382 limits assumed): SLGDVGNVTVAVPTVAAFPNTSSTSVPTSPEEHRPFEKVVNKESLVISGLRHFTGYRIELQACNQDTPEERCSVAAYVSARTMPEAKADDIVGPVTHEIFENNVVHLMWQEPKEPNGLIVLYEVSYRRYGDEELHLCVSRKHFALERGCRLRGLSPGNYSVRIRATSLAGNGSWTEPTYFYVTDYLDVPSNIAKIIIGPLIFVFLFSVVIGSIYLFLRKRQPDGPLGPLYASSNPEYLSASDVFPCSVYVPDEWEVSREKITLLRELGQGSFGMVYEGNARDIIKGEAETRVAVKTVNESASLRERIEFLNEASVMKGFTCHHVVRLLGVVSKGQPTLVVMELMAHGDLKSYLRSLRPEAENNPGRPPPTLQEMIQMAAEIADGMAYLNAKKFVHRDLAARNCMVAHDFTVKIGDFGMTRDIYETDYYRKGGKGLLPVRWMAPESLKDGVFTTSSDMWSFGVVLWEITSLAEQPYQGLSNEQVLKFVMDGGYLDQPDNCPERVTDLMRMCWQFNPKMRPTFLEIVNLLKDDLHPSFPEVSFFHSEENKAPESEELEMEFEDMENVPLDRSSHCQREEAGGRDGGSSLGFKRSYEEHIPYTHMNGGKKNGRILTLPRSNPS

- % of control (Insulin receptor): -1.61%
- % of inhibition [1]: 7.54%
- % of control [2]: 4.55%
SMILES: Cn1cc(-n2cnc3c(NCc4nc5cc(Cl)c(Cl)cc5[nH]4)nc(N4CCOCC4)nc32)cn1
